Test results taken from patent US20050032124A1, “Identification of genotype-selective agents for treating Huntington's disease” (priority 2003, published 2005).
Values after ≈ are worked out from the molar mass of the structure shown. Where two headings read alike, the source gives them in different places.

How the values were obtained:
Experiment in all cases: Calcein AM viability assay, dilution-series retest
Format in all cases: cell-based, human
[1] = system: TIP5/TERT cells; details: Homo sapiens, 48 h, read-out: IC50, TIP5-TERT
Excerpt: (§1) In a third series, cell lines derived from independently prepared human TIP5 foreskin fibroblasts created by introducing cDNA constructs encoding hTERT, LT, ST and RASV12 (Lessnick et al., 2002, Cancer Cell 1, 393-401) were used. These cell lines were called, respectively: TIP5/TERT, TIP5/TERT/LT, TIP5/TERT/LT/ST, and TIP5/TERT/LT/ST/RAS^V12. In a fourth series, cell lines derived from TIP5 fibroblasts created by introducing cDNA constructs encoding hTERT, E6, E7, ST and RAS^V12 were used. These cell lines were named, respectively: TIP5/TERT/E6, TIP5/TERT/E6/E7, TIP5/TERT/E6/E7/ST, and TIP5/TERT/E6/E7/ST/RAS^V12. In this series, HPV E6 and E7, which inactivate p53 and RB, respectively, serve a similar function as LT in the previous series. However, by using HPV E6 and E7, Applicants were able to observe the effects of inactivating, separately and independently, p53 and RB. Results of a large-scale screen for compounds that display selective killing of these engineered tumorigenic cell lines are described in the examples that follow.
(§2) Calcein acetoxylmethyl ester (AM) is a cell membrane-permeable, non-fluorescent compound that is cleaved by intracellular esterases to form the anionic, cell-impermeable, fluorescent compound calcein. Viable cells are stained by calcein because of the presence of intracellular esterases and because the intact plasma membrane prevents fluorescent calcein from leaking out of cells (Wang et al., 1993, supra). Cells were seeded in 384-well plates using a Zymark Sciclone ALH, treated with each compound in triplicate at 4 μg/mL in the primary screen for two days, washed with phosphate-buffered saline on a Packard Minitrak with a 384-well washer and incubated for four hours with 0.7 μg/mL calcein (Molecular Probes). Total fluorescence intensity in each well was recorded on a Packard Fusion platereader, and converted to a percent inhibition of signal by subtracting the instrument background and dividing by the average signal obtained when cells were not treated with any compound.
(§3) Replica daughter plates were prepared with a Zymark Sciclone ALH and integrated Twister II by diluting stock plates 50 fold in medium lacking serum and pen/strep to obtain a compound concentration in daughter plates of 80 μg/ml with 2% DMSO. Assay plates were prepared by seeding cells in black, clear bottom 384-well plates in columns 1-23 (6000 cells/well in 57 μl) using a syringe bulk dispenser. Columns 3-22 were treated with compounds from a daughter library plate by transferring 3 μl from the daughter library plate using 384-position fixed cannula array. The final compound concentrations in assay plates were thus 4 μg/ml. The assay plates were incubated for 48 hours at 37° C. in humidified incubator containing 5% CO2. Plate processing for the calcein AM viability assay was performed using an integrated Minitrak/Sidetrak robotic system from Packard Bioscience (Perkin Elmer). Assay plates were washed with phosphate buffered saline, and 20 μl of calcein AM (0.7 μg/ml) per well was added. Plates were incubated at room temperature for 4 hours. Fluorescence intensity was determined using a Fusion platereader with filters centered on an excitation of 485 nm and an emission of 535 nm.
(§4) Compounds to be retested were purchased from manufacturers. Stocks were prepared in DMSO at a concentration of 1 mg/ml in 384-well polypropylene plates with a 16-point, two-fold dilution dose curve of each compound in a column, in duplicates. Column 1-2 and 23-24 were left empty for controls. Daughter retest plates were prepared from stock retest plate by diluting 66.6 fold in DMEM in 384-well deep-deep well plates (4.5 μl transfer into 300 μl). Cells were seeded at a density of 6000 per well in 40 μl, and 20 μl was added from a daughter retest plate. The plates were incubated for two days at 37° C. with 5% CO2.
(§5) Mean RFU (relative fluorescence units) for untreated cells was calculated by averaging columns 1, 2, and 23 (wells with cells but lacking compounds). […]

[2] = system: TIP5/TERT/E6/E7/ST cells; details: Homo sapiens, 48 h, read-out: IC50, TIP5-TERT/E6E7 ST
Excerpt: as §1, §2, §3, §4, §5

[3] = system: BJ-TERT/LT/RAS^V12/ST cells; details: Homo sapiens, 48 h, read-out: IC50, BJ-TERT/LT/Ras^V12/ST
Excerpt: (§6) Described here is work carried out to identify compounds with increased potency or activity in the presence of hTERT, LT, ST, E6, E7 or RAS^V12. Engineered cell lines with these genetic elements were used to screen […] compounds, including 20,000 compounds from a combinatorial library, 1,990 compounds from the National Cancer Institute diversity collection, and 1,540 biologically active known compounds that were selected and purchased by Applicant and formatted into a screenable collection. The primary screen tested (in quadruplicate) the effect of treating tumorigenic BJ-TERT/LT/ST/RAS^V12 engineered tumorigenic cells with each compound for 48 hours at a concentration of 4 μg/mL, corresponding to 10 μM for a compound with a molecular weight of 400, which is the approximate median molecular weight of the libraries. Cell viability was measured using the dye calcein acetoxymethyl ester (calcein AM) (Wang et al., 1993, Hum. Immunol. 3 7, 264-270), which is a non-fluorescent compound that freely diffuses into cells. In live cells, calcein AM is cleaved by intracellular esterases, forming the anionic fluorescent derivative calcein, which cannot diffuse out of live cells. […] The IC50 value (concentration required to inhibit 50% of the calcein AM signal) was calculated for each compound in each cell line (Table 1). […] Following is a more detailed analysis of these nine compounds.
as §2, §3
(§7) Compounds to be retested were purchased from manufacturers. Stocks were prepared in DMSO at a concentration of 1 mg/ml in 384-well polypropylene plates with a 16-point, two-fold dilution dose curve of each compound in a column, in duplicates. Column 1-2 and 23-24 were left empty for controls. […]

[4] = system: BJ primary cells; details: Homo sapiens, 48 h, read-out: concentration required to achieve 50% inhibition of calcein AM staining (IC50), BJ
Excerpt: as §6, §2, §3, §7

[5] = system: BJ-TERT/LT/ST cells; details: Homo sapiens, 48 h, read-out: IC50, BJ-TERT/LT/ST
Excerpt: as §6, §2, §3, §7

[6] = TIP5-TERT cells, 16-point two-fold dilution, two days
[7] = TIP5-TERT/E6E7/ST cells, 16-point two-fold dilution, two days
[8] = BJ-TERT/LT/Ras^V12/ST cells, 16-point two-fold dilution, two days
[9] = BJ cells, 16-point two-fold dilution, two days
[10] = BJ-TERT/LT/ST cells, 16-point two-fold dilution, two days

Structure (SMILES): COc1ccc(C[C@H]2C(=O)N[C@@H](C)C(=O)N(C)[C@@H]3C(=O)N(C)[C@@H](Cc4ccc(O)c(c4)Oc4ccc(cc4)[C@@H]3O)C(=O)N[C@H](C)C(=O)N[C@@H](C)C(=O)N2C)cc1 [Bouvardin]
- IC50 [1]: > 5 µg/mL
- IC50 [2]: 0.039 µg/mL (≈ 0.0505 µM)
- IC50 [3]: 0.0195 µg/mL (≈ 0.0252 µM)
- IC50 ([4]; BJ): 0.312 µg/mL (≈ 0.404 µM)
- IC50 [5]: 0.0195 µg/mL (≈ 0.0252 µM)

Structure (SMILES): CC[C@@]1(O)C(=O)OCc2c1cc1n(c2=O)Cc2cc3ccccc3nc2-1 [Camptothecin]
- IC50 [1, 6]: > 5 µg/mL
- IC50 [2, 7]: 0.156 µg/mL (≈ 0.448 µM)
- IC50 [3, 8]: 0.0195 µg/mL (≈ 0.056 µM)
- IC50 [4, 9]: > 5 µg/mL
- IC50 [5, 10]: 1.25 µg/mL (≈ 3.59 µM)

Structure (SMILES): COc1cccc2c1C(=O)c1c(O)c3c(c(O)c1C2=O)C[C@@](O)(C(C)=O)C[C@@H]3O[C@H]1C[C@H](N)[C@H](O)[C@H](C)O1 [Daunorubicin]
- IC50 [1]: > 5 µg/mL
- IC50 [2]: 0.625 µg/mL (≈ 1.18 µM)
- IC50 [3]: 0.625 µg/mL (≈ 1.18 µM)
- IC50 ([4]; BJ): 5 µg/mL (≈ 9.48 µM)
- IC50 [5]: 0.312 µg/mL (≈ 0.591 µM)

Structure (SMILES): COc1cccc2c1C(=O)c1c(O)c3c(c(O)c1C2=O)C[C@@](O)(C(=O)CO)C[C@@H]3O[C@H]1C[C@H](N)[C@H](O)[C@H](C)O1 [Doxorubicin]
- IC50 [1, 6]: > 5 µg/mL
- IC50 [2, 7]: 1.25 µg/mL (≈ 2.3 µM)
- IC50 [3, 8]: 1.25 µg/mL (≈ 2.3 µM)
- IC50 [4, 9]: > 5 µg/mL
- IC50 [5, 10]: 0.312 µg/mL (≈ 0.574 µM)

Structure (SMILES): CS[C@H]1SC[C@H]2C(=O)N(C)[C@@H](C(C)C)C(=O)OC[C@@H](NC(=O)c3cnc4ccccc4n3)C(=O)N[C@@H](C)C(=O)N(C)[C@@H]1C(=O)N(C)[C@@H](C(C)C)C(=O)OC[C@@H](NC(=O)c1cnc3ccccc3n1)C(=O)N[C@@H](C)C(=O)N2C [Echinomycin]
- IC50 [1]: > 5 µg/mL
- IC50 [2]: 0.048 µg/mL (≈ 0.0436 µM)
- IC50 [3]: 0.0012 µg/mL (≈ 0.00109 µM)
- IC50 ([4]; BJ): > 5 µg/mL
- IC50 [5]: 0.0048 µg/mL (≈ 0.00436 µM)

Structure (SMILES): CCOc1ccccc1-n1c(C(C)N2CCN(C(=O)COc3ccc(Cl)cc3)CC2)nc2ccccc2c1=O (stereo not shown) [Erastin]
- IC50 [1, 6]: > 5 µg/mL
- IC50 [2, 7]: > 5 µg/mL
- IC50 [3, 8]: 1.25 µg/mL (≈ 2.28 µM)
- IC50 [4, 9]: > 5 µg/mL
- IC50 [5, 10]: > 5 µg/mL

Structure (SMILES): O=C1c2c(O)ccc(O)c2C(=O)c2c(NCCNCCO)ccc(NCCNCCO)c21 [Mitoxantrone]
- IC50 [1, 6]: > 5 µg/mL
- IC50 [2, 7]: 0.625 µg/mL (≈ 1.41 µM)
- IC50 [3, 8]: 0.312 µg/mL (≈ 0.702 µM)
- IC50 [4, 9]: 5 µg/mL (≈ 11.2 µM)
- IC50 [5, 10]: 0.312 µg/mL (≈ 0.702 µM)

Structure (SMILES): NC(=O)c1cn([C@@H]2O[C@H](CO)[C@@H](O)[C@H]2O)c2ncnc(N)c12 [Sangivamycin]
- IC50 [1]: 1.25 µg/mL (≈ 4.04 µM)
- IC50 [2]: 0.078 µg/mL (≈ 0.252 µM)
- IC50 [3]: 0.078 µg/mL (≈ 0.252 µM)
- IC50 ([4]; BJ): 0.312 µg/mL (≈ 1.01 µM)
- IC50 [5]: 0.195 µg/mL (≈ 0.63 µM)
